Measurements reported in patent US10246425B2, “3,5-diamino-6-chloro-N-(N-(4-phenylbutyl)carbamimidoyl) pyrazine-2-carboxamide compounds” (Parion Sciences, Inc., priority 2012, dated 2019).

Columns and labels:
sheep = test: Mucociliary clearance (MCC) studies in sheep; type: in vivo
Description: Assay 2. Mucociliary Clearance (MCC) Studies in Sheep

[1] = Plasma potassium in sheep of the MCC study (marker for hyperkalemia)
Method: The animal model that has been used most often to measure changes in MCC is the sheep model. The effect of compounds for enhancing mucociliary clearance (MCC) can be measured using an in vivo model described by Sabater et al., Journal of Applied Physiology, 1999, pp. 2191-2196, incorporated herein by reference. In these studies, adult sheep were restrained and nasally intubated with an endotracheal tube. Aerosolized test articles were administered over 10-15 minutes to sheep. Radiolabeled ^99mTc-sulfur colloid (TSC, 3.1 mg/mL; containing approximately 20 mCi) was then administered at a specified time four or eight hours after test article. The radiolabeled aerosol was administered through the endotracheal tube for about 5 minutes. The sheep were then extubated, and total radioactive counts in the lung were measured every 5 minutes for a 1-hour observation period. The rate of radiolabel clearance from the lung is representative of the MCC rate in the animal. The advantage of this system is that it closely simulates the human lung environment. The model also allows for the collection of simultaneous PK/PD information through plasma and urine sampling over the test period. There are also several techniques to measure the drug concentrations on the airway surface during the MCC measurements. These include the collection of exhaled breath condensates or a filter paper method to obtain ASL via bronchoscopy.
The ovine model described above was used to evaluate the in vivo effects (efficacy/durability) of aerosol-delivered Compound II-d on MCC. Treatments consisting of either 4 mL of Compound II-d, Comparative Example 1, (S)-3,5-diamino-6-chloro-N—(N-(4-(4-(2,3-diamino-3-oxopropoxy)phenyl)butyl)carbamimidoyl)pyrazine-2-carboxamide, vehicle (sterile distilled H2O), or test agent in combination with HS were tested. To determine if combining HS with Compound II-d MCC, HS was administered immediately following Compound II-d administration. […] Radioactive counts were measured in a central region in the right lung at 5 min intervals for one hour with a gamma camera. […]

[2] = test system: human bronchial epithelial (HBE) cells; test: Airway surface liquid drug (ASL) clearance and metabolism by human airway epithelium; type: in vitro ADME; conditions: for % of Apical Mass as Metabolites (2 h) / % of Initial Apical Mass on Basolateral Side (2 h) / % on Basolateral Side as Metabolites (2 h): 25 μL of 25 μM apical
Method: Assay 3. Airway Surface Liquid Drug (ASL) Clearance and Metabolism by Human Airway Epithelium
(§1) The disappearance of Compound II-d from the apical surface and airway epithelial metabolism were assessed in human bronchial epithelial (HBE) cells (Table 3). In these experiments 25 μL of a 25 μM solution of ENaC blocker was added to the apical surface of HBE cells grown at an air/liquid interface, and the drug concentration in the apical and basolateral compartment was measured over 2 h by UPLC.
as §1, with “Therefore, the compounds of Formula (A) have a longer half-life on mucosal surfaces compared to these know compounds as evidenced by the data shown in Table 4. The” for “The”, “HBE and compared to Comparative Example 1” for “human bronchial epithelial (HBE) cells”, “4).” for “3).”

Primary CBE cells = test: Airway hydration and sodium channel block (in vitro model): surface liquid retention; type: cell-based, canine; conditions: for surface liquid retained on apical surface (% initial volume): 50 μl buffer, 10 μM
Method: Assay 4. Airway Hydration and Sodium Channel Block (In Vitro Model)
Primary CBE cells are plated onto collagen-coated, porous membranes maintained at an air-liquid interface to assess maintenance of surface liquid volume over time. At the start of the experiment, each 12 mm snapwell insert was removed from the plate containing air-liquid interface culture media, blotted dry, weighed, and 50 μL of vehicle (0.1% DMSO), or ENaC blocker (10 μM in 0.1% DMSO) applied to the apical surface and the mass was recorded. The inserts were immediately returned to a transwell plate (500 μL, Krebs Ringer Bicarbonate (KRB), pH 7.4 in lower chamber) and placed in a 37° C., 5% CO2 incubator. To reduce artifact due to an apical carbohydrate osmotic gradient upon water loss, glucose was not included in the apical buffer. Compound (1a) was tested and compared to vehicle, and the mass of ASL was monitored serially from 0-8 or 24 h. The mass of surface liquid was converted to volume in μL. Data are reported as % initial volume (100%=50 μL).
The duration of sodium transport inhibition was determined indirectly by measuring the buffer retained after a 50 μl volume of experimental buffer was added to the apical surface of CBE cells.

[3] = Table 5: sheep MCC 4 h post-dose, 24 nmol/kg (300 μM)
[4] = Table 5: sheep MCC 4 h post-dose, 240 nmol/kg (3 mM)
[5] = Table 4: HBE cells, 2 h, mean ± SD
[6] = Table 4: HBE cells, 2 h, parent only
[7] = Table 5: sheep MCC 4 h post-dose, 0.024 nmol/kg (300 nM)
[8] = sheep MCC 4 h post-dose, 0.024 nmol/kg (300 nM) aerosol, mean ± SD (n)
[9] = sheep MCC 4 h post-dose, 0.24 nmol/kg (3 μM) aerosol, mean ± SD (n)
[10] = HBE cells, 2 h incubation on the apical surface (37° C.), UPLC

## N=C(NCCCCc1ccc(OC[C@H](N)C(N)=O)cc1)NC(=O)c1nc(Cl)c(N)nc1N [Comparative Example 1, (S)-3,5-diamino-6-chloro-N—(N-(4-(4-(2,3-diamino-3-oxopropoxy)phenyl)butyl)carbamimidoyl)pyrazine-2-carboxamide, reference compound]
sheep; Ovis aries, sheep MCC 4 h post-dose, slope, AUC and Maximum Clearance, read-out: ED50 in the sheep MCC model
  ED50: ~0.24 µmol/kg
sheep; [3]
  AUC (% CI × h): 6.9 ± 1.0 (3) % CI × h
  Initial Slope (4.0-4.5 h): 14.5 ± 1.3 (3)
sheep; [4]
  AUC (% CI × h): 14.1 ± 2.2 (6) % CI × h
  Initial Slope (4.0-4.5 h): 32.2 ± 7.3 (6)
sheep; sheep
  MCC Highest Submaximal Dose: 3 mM
sheep; sheep MCC 4 h post-dose
  ED50 in the sheep MCC model (concentration of dosing solution): ~3000 µM
[1]
  Top Dose in Sheep with no Elevation of Plasma Potassium: 300 µM
[2]; HBE cells, 2 h
  elimination from the apical side: most of Comparative Example 1 was eliminated from the apical side
[2]; HBE cells, 2 h, apical side
  metabolized to the less active carboxylic acid: 83%
[2]; [5]
  % of Apical Mass as Metabolites (2 h): 83.0 ± 3.5%
  % of Initial Apical Mass on Basolateral Side (2 h): 8.3 ± 0.2^ %
  % on Basolateral Side as Metabolites (2 h): 94.7 ± 1.0%
[2]; [6]
  % of Initial Apical Mass on Basolateral Side as Parent (2 h): (1% Parent)
  % of Initial Drug Mass on Apical Side as Parent (2 h): (8% Parent)

## N=C(NCCCCc1ccc(CC[C@H](NCCCN(C[C@H](O)[C@@H](O)[C@H](O)[C@H](O)CO)C[C@H](O)[C@@H](O)[C@H](O)[C@H](O)CO)C(N)=O)cc1)NC(=O)c1nc(Cl)c(N)nc1N [II-d, 3,5-diamino-N—(N-(4-(4-((S)-4-amino-3-(3-(bis((2S,3R,4R,5R)-2,3,4,5,6-pentahydroxyhexyl)amino)propylamino)-4-oxobutyl)phenyl)butyl)carbamimidoyl)-6-chloropyrazine-2-carboxamide]
sheep; [7]
  AUC (% CI × h): 11.5 ± 0.9 (4) % CI × h
  Initial Slope (4.0-4.5 h): 26.5 ± 1.4 (4)
sheep; sheep
  MCC Highest Submaximal Dose: 0.0003 mM
sheep; sheep MCC 4 hours post-dose
  potency in sheep MCC relative to Comparative Example 1 (fold lower dose / times more potent): 10,000
sheep; [8]
  AUC (% CI - h): 11.5 ± 0.9 (4) % CI - h
  Initial Slope (4.0-4.5 h): 26.5 ± 1.4 (4)
sheep; [9]
  AUC (% CI - h): 19.8 ± 1.4 (4) % CI - h
  Initial Slope (4.0-4.5 h): 41.9 ± 3.7 (4)
sheep; sheep MCC four hour post-dosing
  ED50 dose: approximately 0.024 nmo/kg
sheep; sheep MCC, clinically relevant dose range
  percentage mucus clearance over time (FIG. 6): maximal effect
sheep; sheep, 0.24 nmol/kg dose
  MCC effect at the top of the dose response curve: maximum (100%) MCC effect
sheep; sheep, four hour post-dosing, all doses tested (0.024, 0.24 and 2.4 nmol/kg)
  effect on MCC compared to vehicle control: enhanced MCC compared to vehicle control
[1]
  Therapeutic Index, times greater renal safety than Comparative Example 1: 10,000-100,000
  Top Dose in Sheep with no Elevation of Plasma Potassium: 300 µM
[2]; [10]
  compound detectable on the basolateral side: no Compound II-d was detectable on the basolateral side
  metabolites on the apical or basolateral sides: no metabolites were detected
[2]; Table 3: HBE cells, 2 h
  % of Apical Mass as Metabolites (2 h): None
  % on Basolateral Side as Metabolites (2 h): None
[2]; Table 3: HBE cells, 2 h, mean ± SD
  % of Initial Apical Mass on Basolateral Side (2 h): 1.6 ± 0.15%
[2]; [5]
  % of Apical Mass as Metabolites (2 h): None
  % of Initial Apical Mass on Basolateral Side (2 h): 1.6 ± 0.15%
  % on Basolateral Side as Metabolites (2 h): None
Primary CBE cells; 8 hours
  surface liquid retained on apical surface (% initial volume): 112±11%
Primary CBE cells; 24 hours
  surface liquid retained on apical surface (% initial volume): 70.6±8.0%
  loss of surface liquid relative to the 8-hour measure: 16%
